This assay deals with LTB4 biosynthesis in human polymorphonuclear leukocytes (PMNs). The assay can be described thus: Inhibition of LTB4 biosynthesis in human polymorphonuclear leukocytes (PMNs). Format: cell-based. The protocol:
Inhibition of LTB4, biosynthesis in human polymorphonuclear leukocytes (PMNs)
The inhibition of leukotriene biosynthesis is measured by determining whether and to what extent test compounds can inhibit LTB4 production from endogenous arachidonic acid in human peripheral blood leukocytes.
To 48-well tissue culture plates was added a solution of the test compound followed by addition of human polymorphonuclear leukocytes isolated from peripheral blood at a density of 1.5×10^6 cells/well. Culture plates were preincubated for fifteen minutes with shaking at 28° C. Cells were stimulated with calcium ionophore A23187 at a final concentration of 2.5 μM for an additional ten minutes. The reaction was terminated by the addition of an EGTA solution (10 mM final concentration)followed by centrifugation at 1500 rpm at 10° C. Supernatants were stored at -70° C. LTB4 levels were determined by RIA using a commercially available kit. Nonlinear regression analysis was used to calculate. IC50 values.
The following tables show % inhibition of LTB4 biosynthesis by compounds of the invention at test concentrations indicated, with the determined IC50 shown in μM.

[1] abbreviates: Homo sapiens, Leukocyte, Table 2, Amides, values with <: see footnote d, Tables 1 and 1A.
Setting [2] is: Homo sapiens, Leukocyte, Table 8, Miscellaneous Acyclic, values with <: see footnote d, Table 1.
Setting [3] is: Homo sapiens, Leukocyte, Table 4, Pyridyl, values with <: see footnote d, Table 1.
[4] abbreviates: Leukocyte, Table 1, Esters, LTB4, A23187-stimulated human PMNs, values with < (footnote d): greater than 50% (504 [sic]) inhibition at this concentration, IC50 not characterized further.
Setting [5] is: Homo sapiens, Leukocyte, Table 11, Thiazolopyridines, values with <: see footnote d, Table 1.
The mark [6] stands for this setting: Homo sapiens, Leukocyte, Table 9, Miscellaneous Heterocycle, values with <: see footnote d, Table 1.
[7] abbreviates: Homo sapiens, Leukocyte, Table 3, Phenyl, values with <: see footnote d, Table 1.
Where [8] appears, read: Homo sapiens, Leukocyte, Table 7, Ketones.
[9] abbreviates: Table 4, Pyridyl, values with <: see footnote d, Table 1.
The mark [10] stands for this setting: Homo sapiens, Leukocyte, Table 6, Methyloxadiazole, values with <: see footnote d, Table 1.

As for `CNC(=O)[C@H](CC1CCCCC1)Nc1nc2cc(C)ccc2o1` [Compound 44, L-N-(5-Methylbenzoxazol-2-yl)cyclohexylalanine-N'-methylamide], the half-inhibitory concentration (IC50) under setting [1] turned out to be 0.072 µM.

In turn, `CCOC[C@H](Cc1ccccc1)Nc1nc2cc(C(C)C)ccc2o1` [Compound 133] came in with an IC50 under setting [2] of 0.016 µM.

`Fc1ccc(CC(Nc2nc3cc(F)ccc3o2)c2ccccn2)cc1` (stereo not shown) [Compound 110]: under setting [3], inhibition was half-maximal at 0.021 µM (IC50).

In turn, `COc1ccc2oc(NC(Cc3ccc(F)cc3)c3ccccn3)nc2c1` (stereo not shown) [Compound 114] yielded a concentration for half-maximal inhibition (IC50) under setting [3] of 0.011 µM.

Under setting [4], `CCOC(=O)C(Cc1ccc(Br)cc1)Nc1nc2ccccc2s1` (stereo not shown) [Compound 3] showed a half-inhibitory concentration (IC50) of 0.15 µM.

Consider `COCC(Cc1cccnc1)Nc1nc2cc(C(C)C)ccc2o1` (stereo not shown) [Compound 140], for which the IC50 under setting [2] is below 1 µM.

On to `Clc1cnc2nc(NC(CC3CCCCC3)c3ccccn3)sc2c1` (stereo not shown) [Compound 188], for which the IC50 under setting [5] turned out to be 0.0039 µM.

In turn, `CCOC[C@H](Cc1ccccc1)Nc1nc2cc(Cl)ccc2o1` [Compound 135] gave an IC50 under setting [2] of 0.029 µM.

Regarding `CCOC(=O)[C@H](Cc1ccccc1)Nc1nc2cc(CC)ccc2s1` [Compound 14], under setting [4], it took 0.009 µM to reach half-maximal inhibition (IC50).

For `COCC(Cc1ccc(OC)cc1)Nc1nc2cc(C(C)C)ccc2o1` (stereo not shown) [Compound 139], under setting [2], the IC50 was below 0.03 µM.

Turning to `CCOC(=O)[C@H](CC1CCCCC1)Nc1nc2cc(CC)ccc2s1` [Compound 15], the half-maximal inhibitory concentration (IC50) under setting [4] is 0.027 µM.

Consider `CC(C)c1ccc2oc(NC(Cc3ccccc3)c3cn[nH]c3)nc2c1` (stereo not shown) [Compound 161], for which the concentration for half-maximal inhibition (IC50) under setting [6] is below 0.1 µM.

In turn, `Cc1ccc2oc(N[C@@H](CC3CCCCC3)C(=O)OC(C)(C)C)nc2c1` [Compound 25] gave a concentration for half-maximal inhibition (IC50) under setting [4] below 0.3 µM.

In turn, `O=C(O)c1ccc2nc(NC(CC3CCCCC3)c3ccccc3)sc2c1` (stereo not shown) [Compound 66] gave a 50% inhibitory concentration (IC50) under setting [7] of 0.22 µM.

The molecule `CN(C)C(=O)c1ccc2oc(NC(CC3CCCCC3)c3ccccc3)nc2c1` (stereo not shown) [Compound 65] returned an IC50 under setting [7] of 0.17 µM.

As to `CC(C)c1ccc2oc(NC(Cc3cccc(Cl)c3)c3nccs3)nc2c1` (stereo not shown) [Compound 159], the IC50 under setting [6] was below 0.1 µM.

The molecule `CC(C)c1ccc2oc(NC(Cc3ccc(F)cc3)c3ncc[nH]3)nc2c1` (stereo not shown) [Compound 156] showed an IC50 under setting [6] of 0.09 µM.

Turning to `CCOC(=O)C(CCc1ccccc1)Nc1nc2ccccc2s1` (stereo not shown) [Compound 37], where the note is “Homo sapiens, Leukocyte, Table 1A, Esters, LTB4, A23187-stimulated human PMNs”, it took 0.52 µM to reach half-maximal inhibition (IC50).

With `CON(C)C(=O)[C@H](Cc1ccccc1)Nc1nc2ccccc2o1` [Compound 43], under setting [1], the IC50 is below 1 µM.

In turn, `c1ccc(CC(Nc2nc3ccccc3s2)c2ccccc2)cc1` (stereo not shown) [Compound 47] had a half-inhibitory concentration (IC50) under setting [7] of 0.16 µM.

In the case of `COC(=O)[C@H](CC1CCCCC1)Nc1nc2cc(C)ccc2o1` [Compound 24], under setting [4], the IC50 worked out at 0.0017 µM.

In turn, `COC(=O)[C@@H](CC1CCCCC1)Nc1nc2ccccc2o1` [Compound 22] displayed a half-inhibitory concentration (IC50) under setting [4] of 0.1 µM.

Turning to `CN(C)C(=O)C(Cc1ccccc1)Nc1nc2ccccc2s1` (stereo not shown) [Compound 41], the half-inhibitory concentration (IC50) under setting [1] came out at 3 µM.

`c1csc(C(CC2CCCCC2)Nc2nc3ccccc3o2)c1` (stereo not shown) [Compound 120]: the half-maximal inhibitory concentration (IC50) (Homo sapiens, Leukocyte, Table 5, Thiophene) worked out at 0.0062 µM.

Under setting [3], `Clc1ccc(CC(Nc2nc3cc(Cl)ccc3o2)c2ccccn2)cc1` (stereo not shown) [Compound 99] had a 50% inhibitory concentration (IC50) of 0.014 µM.

With `Cc1cnc2nc(NC(CC3CCCCC3)c3ccccn3)sc2c1` (stereo not shown) [Compound 184], the 50% inhibitory concentration (IC50) under setting [5] came to 0.031 µM.

Regarding `Cc1nc2nc(NC(CC3CCCCC3)c3ccccn3)sc2cc1Br` (stereo not shown) [Compound 185], the IC50 under setting [5] came to 0.0065 µM.

Turning to `c1cncc(C(CC2CCCCC2)Nc2nc3cccnc3s2)c1` (stereo not shown) [Compound 173], inhibition under setting [5] was half-maximal at 0.17 µM (IC50).

The molecule `CCCOC[C@H](Cc1ccccc1)Nc1nc2cc(C(C)C)ccc2o1` [Compound 134] displayed a half-maximal inhibitory concentration (IC50) under setting [2] of 0.22 µM.

Molecule `Cc1ccc2sc(NC(CC3CCCCC3)c3ccccn3)nc2n1` (stereo not shown) [Compound 187] displayed an IC50 under setting [5] of 0.013 µM.

Under setting [4], `COC(=O)[C@H](Cc1ccccc1)Nc1nc2ccc(C(C)C)cc2s1` [Compound 8] registered an IC50 of 0.14 µM.

In turn, `Cc1ccc2oc(N[C@@H](CC3CCCCC3)C(=O)c3nccn3C)nc2c1` [Compound 132] yielded a 50% inhibitory concentration (IC50) under setting [8] of 0.023 µM.

Molecule `Fc1ccc(CC(Nc2nc3cc(F)c(F)cc3o2)c2ccccn2)cc1` (stereo not shown) [Compound 113] gave a concentration for half-maximal inhibition (IC50) under setting [3] of 0.024 µM.

The molecule `Clc1ccc2oc(NC(CC3CCCCC3)c3ccccn3)nc2c1` (stereo not shown) [Compound 91] displayed a half-maximal inhibitory concentration (IC50) under setting [3] of 0.002 µM.

`CS(=O)(=O)Nc1ccc2oc(NC(CC3CCCCC3)c3ccccc3)nc2c1` (stereo not shown) [Compound 60] had an IC50 under setting [7] of 0.16 µM.

Molecule `COC(=O)[C@H](CC1CCCCC1)Nc1nc2cc(C(C)C)ccc2o1` [Compound 23] gave an IC50 under setting [4] of 0.001 µM.

The molecule `CN(C)S(=O)(=O)c1ccc2oc(NC(Cc3ccc(F)cc3)c3ccccn3)nc2c1` (stereo not shown) [Compound 103] showed an IC50 under setting [3] of 0.05 µM.

`Fc1ccc2oc(NC(CC3CCCCC3)c3ccccn3)nc2c1F` (stereo not shown) [Compound 111]: the 50% inhibitory concentration (IC50) under setting [3] was 0.004 µM.

Take `CC(C)c1ccc2oc(N[C@H](CNC(N)=O)Cc3ccccc3)nc2c1` [Compound 153]: under setting [2], the IC50 is below 0.3 µM.

`Cc1ccc2oc(NC(CC3CCCCC3)c3ccccn3)nc2c1` (single isomer, unassigned) [Compound 88]: under setting [9], 0.045 µM corresponded to half-maximal inhibition (IC50).

In turn, `Fc1ccc(CC(Nc2nc3cc(Cl)ccc3o2)c2ncc[nH]2)cc1` (stereo not shown) [Compound 155] displayed an IC50 under setting [6] of 0.29 µM.

`CC(C)(C)OC(=O)[C@H](Cc1ccccc1)Nc1nc2ccccc2s1` [Compound 13] came in with an IC50 under setting [4] of 0.73 µM.

As for `CSC[C@H](Cc1cccc(Cl)c1)Nc1nc2cc(C(C)C)ccc2o1` [Compound 142], the IC50 under setting [2] was below 0.03 µM.

On to `Cc1noc([C@H](CC2CCCCC2)Nc2nc3ccccc3s2)n1` [Compound 124], for which the IC50 under setting [10] is 0.12 µM.

As for `Cc1cccc(C(CC2CCCCC2)Nc2nc3ccccc3o2)c1` (stereo not shown) [Compound 57], the half-maximal inhibitory concentration (IC50) under setting [7] is 0.3 µM.

The molecule `Cc1ccc2oc(NC(CC3CCCCC3)c3ccccn3)nc2c1` (single isomer, unassigned) [Compound 87] showed an IC50 under setting [9] of 0.0013 µM.

The molecule `CC(=O)Nc1ccc2oc(NC(CC3CCCCC3)c3ccccc3)nc2c1` (stereo not shown) [Compound 61] had an IC50 under setting [7] of 0.076 µM.

`CC(C)c1ccc2oc(NC(Cc3cccc(Cl)c3)c3ncc[nH]3)nc2c1` (stereo not shown) [Compound 158]: the half-maximal inhibitory concentration (IC50) under setting [6] is below 0.03 µM.

Molecule `CC(=O)NC[C@H](Cc1ccccc1)Nc1nc2cc(C(C)C)ccc2o1` [Compound 151] showed a half-maximal inhibitory concentration (IC50) under setting [2] below 0.1 µM.

As for `Cc1ccc2oc(NC(CC3CCCCC3)c3ccncc3)nc2c1` (stereo not shown) [Compound 83], under setting [3], the IC50 is 0.19 µM.

Turning to `Cc1ccc2oc(N[C@@H](CC3CCCCC3)c3nc(C)no3)nc2c1` [Compound 125, L-2-[2-Cyclohexyl-1-(3-methyl-1,2,4-oxadiazol-5-yl)ethyl]amino-5-methylbenzoxazole], the half-maximal inhibitory concentration (IC50) under setting [10] worked out at 0.028 µM.

Turning to `CC(C)c1ccc2oc(NC(Cc3ccc(F)cc3)c3ccccn3)nc2c1` (stereo not shown) [Compound 94], under setting [3], half-maximal inhibition (IC50) was put at 0.012 µM.

For `CCOC(=O)[C@H](Cc1ccccc1)Nc1nc2cc(C(C)C)ccc2o1` [Compound 19], under setting [4], the IC50 is 0.00052 µM.

In the case of `Cc1nc2nc(NC(CC3CCCCC3)c3cccnc3)sc2cc1Br` (stereo not shown) [Compound 186], under setting [5], the half-maximal inhibitory concentration (IC50) came out at 0.021 µM.

Take `Clc1ccc2oc(NC(CC3CCCCC3)c3cccnc3)nc2c1` (stereo not shown) [Compound 86]: the 50% inhibitory concentration (IC50) under setting [3] stood at 0.023 µM.

On to `CCOC(=O)[C@H](Cc1ccccc1)Nc1nc2ccc(C(C)C)cc2o1` [Compound 20], for which inhibition under setting [4] was half-maximal at 0.22 µM (IC50).

Molecule `CCOC(=O)[C@H](Cc1ccccc1)Nc1nc2ccccc2o1` [Compound 17] showed a half-maximal inhibitory concentration (IC50) under setting [4] of 0.15 µM.

As for `Cc1ccc2oc(N[C@@H](CC3CCCCC3)C(=O)c3ccccc3)nc2c1` [Compound 131], the IC50 under setting [8] is below 1 µM.

The molecule `CCOC(=O)C(Cc1csc(C)n1)Nc1nc2cc(OC)ccc2o1` (stereo not shown) [Compound 27] had a half-inhibitory concentration (IC50) under setting [4] below 0.3 µM.

Molecule `COC(=O)[C@H](CC1CCCCC1)Nc1nc2ccccc2o1` [Compound 21] had a half-inhibitory concentration (IC50) under setting [4] of 0.0064 µM.

For the molecule `CON(C)C(=O)[C@H](CC1CCCCC1)Nc1nc2cc(C)ccc2o1` [Compound 45], under setting [1], the IC50 stood at 0.03 µM.

In turn, `CCOC(=O)C(Cc1ccc(Cl)cc1)Nc1nc2ccc(OC)cc2s1` (stereo not shown) [Compound 9] displayed a half-inhibitory concentration (IC50) under setting [4] of 0.23 µM.

Consider `Ic1ccc2oc(NC(CC3CCCCC3)c3ccccc3)nc2c1` (stereo not shown) [Compound 59], for which half-maximal inhibition under setting [7] (IC50) required 0.013 µM.

Molecule `CC(=O)[C@H](Cc1ccccc1)Nc1nc2ccccc2o1` [Compound 129] came in with a 50% inhibitory concentration (IC50) under setting [8] below 1 µM.

The molecule `O=C(c1ccccc1)[C@H](Cc1ccccc1)Nc1nc2ccccc2o1` [Compound 130] showed a 50% inhibitory concentration (IC50) under setting [8] below 0.3 µM.

Under “Homo sapiens, Leukocyte, Table 14, Miscellaneous Compounds, values with <: see footnote d, Table 1”, `COC(=O)[C@H](Cc1cn(C)cn1)Nc1nc2cc(C(C)C)ccc2o1` [Compound 201] showed an IC50 below 1 µM.

In the case of `Fc1ccc(CC(Nc2nc3cc(Cl)ccc3o2)c2ccccn2)cc1` (stereo not shown) [Compound 93], the midpoint of inhibition under setting [3], the IC50, lay at 0.019 µM.

As usually defined, the IC50 is the concentration that gives 50% inhibition.

The record behind these values is US5552421A, “Leukotriene biosynthesis inhibitors” (Boehringer Ingelheim Pharmaceuticals, Inc., priority 1995, dated 1996).
